{"source": "PubChem BioAssay AID1188", "about": "(EPA DSSTox, 2008)", "note": "Activity calls are given as the source filed them.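 How the source made its calls: active means a concentration killing half the fathead minnows in the acute test was determined; inconclusive means some fish died but not half at top dose; inactive means no fish died even at top dose.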", "data": [{"system": "Fathead minnow (Pimephales promelas) acute toxicity, lethality", "assay": "DSSTox (EPAFHM) EPA Fathead Minnow Acute Toxicity", "outline": "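Activity score is an integer 1–100 scaling of log10(1/LC50 in mmol) between dataset minimum and maximum, highest potency = 100. Underlying LC50 values (mg) come from the U.S. EPA MED database.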", "units": {"Potency": "µM"}, "values": [{"smiles": "CC(C)CC=O", "Potency": 37.7}, {"smiles": "CCCC(C)C=O", "note": "(stereo unspecified)", "Potency": 188}, {"smiles": "O=Cc1cc(O)ccc1[N+](=O)[O-]", "Potency": 251}, {"smiles": "CCC#N", "Potency": 27600}, {"smiles": "CC(C)(C)c1ccc(C(N)=O)cc1", "Potency": 180}, {"smiles": "ClC(Cl)(Cl)C(Cl)(Cl)Cl", "Potency": 6}, {"smiles": "C=Cc1ccc(C(C)(C)C)cc1", "Potency": 3.06}, {"smiles": "C1=CC2CCC1C2", "Potency": 106}, {"smiles": "CCCCCCCCBr", "Potency": 4.34}, {"smiles": "C=C(C)C(=O)OCc1ccccc1", "Potency": 26.5}, {"smiles": "COC(=O)c1ccc(C(=O)OC)c(N)c1", "Potency": 42.7}, {"smiles": "C1C2CC3CC1CC(C2)C3", "Potency": 2.06}, {"smiles": "C1COCCO1", "Potency": 117000}, {"smiles": "C=Cn1c2ccccc2c2ccccc21", "Potency": 0.0166}, {"smiles": "CCOC(=O)c1cccc(N)c1", "Potency": 302}, {"smiles": "Cc1cc(Oc2ccc([N+](=O)[O-])cc2)ccc1Cl", "outcome": "inactive; moa not determined either due to lack of toxicity at saturation or late test res"}, {"smiles": "CCCCCCCCO", "Potency": 104}, {"smiles": "Cc1ncc[nH]1", "Potency": 3480}, {"smiles": "Clc1ccccc1Cl", "Potency": 64}, {"smiles": "Nc1ccc(Br)cn1", "Potency": 1020}, {"smiles": "N#Cc1ccccc1C(F)(F)F", "Potency": 247}, {"smiles": "CCC(C)n1c(=O)[nH]c(C)c(Br)c1=O", "note": "(stereo unspecified)", "Potency": 712}, {"smiles": "O=C1C2CC3CC(C2)CC1C3", "Potency": 405}, {"smiles": "Cc1ccc(C)cc1", "Potency": 83.5}, {"smiles": "CCCCCCCCCCCCCO", "outcome": "inactive; moa not determined either due to lack of toxicity at saturation or late test res"}, {"smiles": "CN(C)C(=O)Nc1ccc(Cl)c(Cl)c1", "Potency": 60.9}, {"smiles": "C=CC(=O)OCC(C)O", "note": "(stereo unspecified)", "Potency": 26}, {"smiles": "CCCCCCC1CCC(=O)O1", "note": "(stereo unspecified)", "Potency": 106}, {"smiles": "OCCOc1ccccc1", "Potency": 2490}, {"smiles": "Cc1cc(Cl)nc(N)n1", "Potency": 982}, {"smiles": "C#CC(O)CCCC", "note": "(stereo unspecified)", "Potency": 15.7}, {"smiles": "ClC(Cl)Cl", "Potency": 592}, {"smiles": "O=C(c1ccc(Br)cc1)c1cccnc1", "Potency": 77.8}, {"smiles": "O=C(/C=C/C=C/c1ccc2c(c1)OCO2)N1CCCCC1", "Potency": 27.5}, {"smiles": "COC(C)=O", "Potency": 4820}, {"smiles": "CCCCCCCCN", "Potency": 40.2}, {"smiles": "C=CC(=O)OC1CCCCC1", "Potency": 9.6}, {"smiles": "CC(N)Cc1ccccc1", "note": "(stereo unspecified)", "Potency": 78.2}, {"smiles": "CNC(=O)Oc1ccc(C(C)(C)C)cc1", "Potency": 48.2}, {"smiles": "C=C(C)C(=C)C", "Potency": 84.1}, {"smiles": "CCCCN(C=O)CCCC", "Potency": 568}, {"smiles": "CNC(=O)O/N=C(\\SC)C(=O)N(C)C", "Potency": 30.9}, {"smiles": "CC(=O)c1ccc(Cl)c([N+](=O)[O-])c1", "Potency": 27.6}, {"smiles": "CN(C)N", "Potency": 131}, {"smiles": "CC(C)=CC1C(C(=O)OCc2coc(Cc3ccccc3)c2)C1(C)C", "note": "(stereo unspecified)", "Potency": 0.0182}, {"smiles": "CC(C)(C)CC(C)(C)N", "Potency": 190}, {"smiles": "COc1ccc(C(C)=O)c(OC)c1OC", "Potency": 947}, {"smiles": "CCc1ccc(N)cc1", "Potency": 602}, {"smiles": "Cc1ccc(C)o1", "Potency": 740}, {"smiles": "C=Cc1cccc(CCl)c1", "Potency": 2.03}, {"smiles": "C#CC(C)(O)C(C)C", "note": "(stereo unspecified)", "Potency": 1830}, {"smiles": "CCN(CC)C(=O)c1cccc(C)c1", "Potency": 575}, {"smiles": "OCCOCCO", "Potency": 709000}, {"smiles": "O=C(O)c1ccccc1O", "Potency": 12500}, {"smiles": "CSCCCCCCSC", "Potency": 56.6}, {"smiles": "Oc1c(Cl)cc(Cl)c(Cl)c1Cl", "Potency": 4.44}, {"smiles": "IC(I)I", "Potency": 7.42}, {"smiles": "CCCCCCOc1ccc(C=O)cc1OC", "Potency": 11.3}, {"smiles": "CC1(C)NC(=O)NC1=O", "Potency": 129000}, {"smiles": "CCCSSCCC", "Potency": 17}, {"smiles": "ClCCCCl", "Potency": 982}, {"smiles": "CCCSCCSCCC", "Potency": 42.2}, {"smiles": "ClC(Cl)C(Cl)(Cl)Cl", "Potency": 37.2}, {"smiles": "c1cc2c3c(cccc3c1)CC2", "Potency": 11.2}, {"smiles": "CCCCCCCCCN", "Potency": 15}, {"smiles": "Cc1ccncc1", "Potency": 4330}, {"smiles": "CC12CCC(CC1)C(C)(C)O2", "Potency": 661}, {"smiles": "ClC(Cl)C(Cl)Cl", "Potency": 121}, {"smiles": "NCCCN1CCN(CCCN)CC1", "Potency": 15500}, {"smiles": "O=P(Oc1c(Cl)cccc1Cl)(Oc1c(Cl)cccc1Cl)Oc1c(Cl)cccc1Cl", "outcome": "inactive; moa not determined either due to lack of toxicity at saturation or late test res"}, {"smiles": "Brc1ccsc1", "Potency": 38}, {"smiles": "CCCCCCCCCCCC#N", "Potency": 2.37}, {"smiles": "C#CC(C)(O)c1ccccc1", "note": "(stereo unspecified)", "Potency": 773}, {"smiles": "OCC(Cl)(Cl)Cl", "Potency": 2000}, {"smiles": "C#CC(O)CCCCC", "note": "(stereo unspecified)", "Potency": 3.27}, {"smiles": "O=C(Nc1ccccc1)c1ccccc1O", "Potency": 18.5}, {"smiles": "CN(C)CCCCl", "Potency": 841}, {"smiles": "OCC(F)(F)F", "Potency": 1190}, {"smiles": "OC(c1ccc(Cl)cc1)(c1ccc(Cl)cc1)C(Cl)(Cl)Cl", "Potency": 1.67}, {"smiles": "O=C1C[C@@H]2OCC=C3CN4CC[C@]56c7ccccc7N1[C@H]5[C@H]2[C@H]3C[C@H]46", "Potency": 1.11}, {"smiles": "CCCCC(CC)COC(=O)c1ccccc1C(=O)OCC(CC)CCCC", "note": "(stereo unspecified)", "outcome": "inactive; moa not determined either due to lack of toxicity at saturation or late test res"}, {"smiles": "O=c1cccc(Cl)[nH]1", "Potency": 1650}, {"smiles": "CCCCCC(=O)O", "Potency": 2760}, {"smiles": "CCNCc1ccccc1", "Potency": 422}, {"smiles": "Oc1ccccc1Cl", "Potency": 88.7}, {"smiles": "Oc1ccccc1-c1ccccc1", "Potency": 36.1}, {"smiles": "CC(C)C(O)C(C)C", "Potency": 1400}, {"smiles": "Clc1ccccc1", "Potency": 150}, {"smiles": "c1ccc2ccccc2c1", "Potency": 47.9}, {"smiles": "O=[N+]([O-])c1ccccc1", "Potency": 967}, {"smiles": "CC#N", "Potency": 40100}]}]}
